Assay results taken from patent US11691974B2, “3,9-diazaspiro[5,5]undecane compound as FLT3 and AXL inhibitors” (MEDSHINE DISCOVERY INC., priority 2018, dated 2023).

Experiments:
[1] = tested on: human biphenotypic B bone marrow mononuclear leukemia cell MV4-11 subcutaneous xenograft tumor; experiment: Inhibition of MV4-11 subcutaneous xenograft tumor in vivo; set-up: species or system nude mice
Procedure: In this assay, the anti-tumor effect of the compounds was evaluated using a nude mice model of subcutaneous xenograft tumor of human biphenotypic B bone marrow mononuclear leukemia cell MV4-11.
Human biphenotypic B bone marrow mononuclear leukemia cell MV4-11 was cultured in vitro in suspension with a RPMI1640 medium supplemented with 10% fetal bovine serum, 100 U/mL penicillin and 100 μg/mL streptomycin in a 5% CO2 cell incubator at 37° C. Routine passaging was performed twice a week. Cells in the logarithmic growth phase were collected, counted and then used for inoculation.
10×10^6 MV4-11 cells were inoculated subcutaneously on the back of the right neck of each mouse, wherein the inoculation volume was 0.2 mL, and the cell suspension was PBS plus matrigel (volume ratio 1:1). The assay of efficacy in vivo was performed on the 13th day after the cell inoculation, at which time the average tumor volume reached 181 mm^3. The mice were randomly divided into groups with 6 mice in each group, and administration to the mice started.
The diameter of the tumor was measured with vernier calipers twice a week. The formula for calculating the tumor volume is: V=0.5a×b^2, where a and b represent the long and short diameters of the tumor, respectively.
After 14 days of administration, the administration was stopped, and the rebound of the tumor was observed.

[2] = In vivo pharmacokinetic study in mice; set-up: species or system CD-1 male mice; details: male, CD-1, mouse, plasma
Procedure: CD-1 male mice aged 7 to 10 weeks were selected. The doses for intravenous and oral administration were 1 mg/kg and 2.5 mg/kg, respectively. The mice were fasted for at least 12 hours before the administration, and resumed feeding 4 hours after the administration. The mice had free access to water throughout the assay period.
On the day of the assay, the animals in the intravenous group were administrated the corresponding compound through a single injection in the tail vein at an administration volume of 5 mL/kg; the oral group were administrated the corresponding compound through a single intragastric gavage at an administration volume of 10 mL/kg. The animals were weighed before administration, and the administration volume was calculated based on the body weight. The time for collecting samples was: 0.083 (the injection group), 0.25, 0.5, 1, 2, 4, 8, 24 h. About 30 μL of whole blood was collected from the saphenous vein at each time point to prepare plasma for concentration determination by high-performance liquid chromatography-tandem mass spectrometry (LC-MS/MS). All animals were euthanized by CO2 anesthesia after collecting the PK samples at the last time point. The plasma concentrations were processed by non-compartmental model of WinNonlin™ Version 6.3 (Pharsight, Mountain View, Calif.) pharmacokinetic software, and the pharmacokinetic parameters were calculated by the linear logarithm trapezoidal method.

[3] = 5 mg/kg oral once a day for 14 days, then drug withdrawal

Compound: CCc1nc(C(N)=O)c(Nc2ccc(N3CCC4(CCN(C)CC4)CC3)c(C)c2)nc1NC1CCOCC1
- % Inhibition rate on day 14 ([1]; 5 mg/kg oral once a day): 119%
- Average tumor volume Day 14 ([1]; 5 mg/kg oral once a day): 32 cubic millimeter
- Average tumor volume Day 25 [1, 3]: 234 cubic millimeter
- Average tumor volume Day 35 [1, 3]: 849 cubic millimeter
- Average tumor volume Day 0 ([1]; baseline at start of dosing, 5 mg/kg oral once a day group): 181 cubic millimeter
- AUC(0-t) ([2]; iv, injection 1 mg/kg): 0.604 µM·h
- clearance ([2]; iv, injection 1 mg/kg): 48.5 mL/min/kg
- half-life ([2]; iv, injection 1 mg/kg): 2.4 h
- Vd ([2]; iv, injection 1 mg/kg, read-out: Vdss): 8.63 L/kg
- AUC(0-t) ([2]; oral administration 2.5 mg/kg): 0.598 µM·h
- bioavailability ([2]; oral administration 2.5 mg/kg): 37.3%
- half-life ([2]; oral administration 2.5 mg/kg): 4.41 h
